Measurements reported in publication PMC4867616, “Imaging of Cerebral Amyloid Angiopathy with Bivalent ^99mTc-Hydroxamamide Complexes” (Scientific Reports, 2016).
Values joined by “and” are separate entries in the source; they are usually repeats but may differ in a detail not shown here. Equal values may be shown once.

Columns and labels:
[1] = target: T1, Aβ depositions in Tg2576 mouse brain (Homo sapiens, UniProt P05067); assay: Ex vivo autoradiography using Tg2576 and wild-type mice; format: in vivo; conditions: Tg2576 mice, 30 min postinjection
T1 construct: Aβ(1–40) aggregates, the predominant amyloid found in CAA; tissue Taconic Farms, Inc. (New York, USA); host or cells: brain of living female Tg2576 transgenic mice
T1 sequence (P05067 672-711 limits assumed): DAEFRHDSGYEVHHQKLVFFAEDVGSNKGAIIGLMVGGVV
Method: Tg2576 transgenic mice (female, 29 months old) and wild-type mice (female, 29 months old) were used as the AD model and age-matched control, respectively. A saline solution (150 μL) of [^99mTc]SB2A or [^99mTc]BT2B (18.5 MBq) containing EtOH (30 μL) was injected through the tail vein. The mice were sacrificed at 30 min postinjection. The brains were immediately removed, embedded in carboxymethylcellulose solution and then frozen in a dry ice/hexane bath. Sections of 30 μm were cut and exposed to a BAS imaging plate (Fuji Film) overnight. Autoradiographic images were obtained using a BAS5000 scanner system (Fuji Film). After autoradiographic examination, the same sections were stained by thioflavin-S to confirm the presence of Aβ depositions. For thioflavin-S fluorescent staining, the sections were immersed in a 100 μM thioflavin-S solution containing 50% EtOH for 3 min, washed in 50% EtOH for 1 min two times, and examined using a microscope (Keyence Corp.) equipped with a GFP-BP filter set. Additionally, the same sections were immunostained by anti-CD31 antibody to confirm the presence of endothelial cells. For immunohistochemical staining of CD31, the sections were incubated in PBST for 5 min three times, and incubated with anti-CD31 primary antibody (SZ31; Abcam, Cambridgeshire, U.K., dilution 1:50) at room temperature overnight. After three 5-min incubations in PBST, anti-rabbit secondary antibody (Dako, California, USA) incubation was carried out at room temperature for 3 h. Subsequently, the sections were incubated in PBST for 5 min three times, and incubated with diaminobenzidine (Merck) as a chromogen for 5 min. After washing with water, the sections were observed under a microscope (Keyence Corp.).
Ex vivo autoradiography using Tg2576 and wild-type mice. Tg2576 transgenic mice (female, 29 months old) and wild-type mice (female, 29 months old) were used as the Alzheimer’s model and age-matched control, respectively. A saline solution (150 µL) of [^99mTc]BT2B (18.5 MBq) containing ethanol (30 µL) was injected through the tail vein. […]

[2] = Ex vivo biodistribution in normal mice; set-up: species or system ddY mice; conditions: i.v., mean (SD), 5 animals
Method: To evaluate brain uptake of ^99mTc-Ham complexes, biodistribution experiments of ^99mTc-Ham complexes were performed in normal mice. We selected ^18F-florbetapir as a control and compared the results of ^99mTc-Ham complexes with that of ^18F-florbetapir (Fig. 2). The brain uptake of [^99mTc]SB1A, [^99mTc]SB2A, [^99mTc]BT1B, and [^99mTc]BT2B at 2 min postinjection was 0.37, 0.28, 0.36, and 0.37% injected dose (ID)/g, respectively. The radioactivity in the brains remained low until 60 min postinjection. The results of the biodistribution study are shown in Table S1 in Supplementary information.
A saline solution (100 μL) of ^99mTc-Ham complexes (20 kBq) containing EtOH (10 μL) was injected directly into the tail vein of ddY mice (male, 5 weeks old). The mice were sacrificed at 2, 10, 30, and 60 min postinjection. The organs of interest were removed and weighed, and radioactivity was measured using a γ counter (PerkinElmer). The %ID/g of samples was calculated by comparing the sample counts with the count of the diluted initial dose.
*Corresponding author: M. Ono. Address: 46-29 Yoshida Shimoadachi-cho, Sakyo-ku, Kyoto 606-8501, Japan, Phone: +81-75-753-4608, Fax: +81-75-753-4568, E-mail: ono@pharm.kyoto-u.ac.jp. Ex vivo biodistribution in normal mice. A saline solution (100 μL) of ^99mTc-Ham complexes (20 kBq) containing EtOH (10 μL) was injected directly into the tail vein of ddY mice (male, 5 weeks old). The mice were sacrificed at 2, 10, 30, and 60 min postinjection. The organs of interest were removed and weighed, and radioactivity was measured using a γ counter (Wallac 1470 Wizard; PerkinElmer, Massachusetts, USA). Percentage dose per organ was calculated by comparing the tissue counts to suitably diluted aliquots of the injected material. The %dose/g of samples was calculated by comparing the sample counts with the count of the diluted initial dose.

CN(C)c1ccc(-c2nc3ccc(C4=N[O][99Tc-]5(=[O])([NH]4)[NH2+]C(c4ccc6nc(-c7ccc(N(C)C)cc7)sc6c4)=N[O]5)cc3s2)cc1 [[^99mTc]BT2B]
Selectivity for vascular versus parenchymal amyloid aggregates (ex vivo autoradiography, thioflavin-S and anti-CD31 staining) [1]: specific detection of CAA
Biodistribution of radioactivity, Blood ([2]; 2 min after injection): 23.15 (4.78) % injected dose per gram
Biodistribution of radioactivity, Brain ([2]; 2 min after injection): 0.37 % injected dose per gram and 0.37 (0.11) % injected dose per gram
Biodistribution of radioactivity, Heart ([2]; 2 min after injection): 9.48 (4.83) % injected dose per gram
Biodistribution of radioactivity, Intestine ([2]; 2 min after injection): 1.32 (0.21) % injected dose per gram
Biodistribution of radioactivity, Kidney ([2]; 2 min after injection): 6.04 (0.96) % injected dose per gram
Biodistribution of radioactivity, Liver ([2]; 2 min after injection): 23.21 (5.72) % injected dose per gram
Biodistribution of radioactivity, Lung ([2]; 2 min after injection): 22.06 (3.09) % injected dose per gram
Biodistribution of radioactivity, Pancreas ([2]; 2 min after injection): 2.81 (0.35) % injected dose per gram
Biodistribution of radioactivity, Spleen ([2]; 2 min after injection): 10.83 (1.58) % injected dose per gram
Biodistribution of radioactivity, Stomach ([2]; 2 min after injection): 0.69 (0.12) % injected dose per organ
Biodistribution of radioactivity, Blood ([2]; 10 min after injection): 10.05 (1.78) % injected dose per gram
Biodistribution of radioactivity, Brain ([2]; 10 min after injection): 0.20 (0.04) % injected dose per gram
Biodistribution of radioactivity, Heart ([2]; 10 min after injection): 8.62 (2.34) % injected dose per gram
Biodistribution of radioactivity, Intestine ([2]; 10 min after injection): 1.97 (0.26) % injected dose per gram
Biodistribution of radioactivity, Kidney ([2]; 10 min after injection): 5.02 (0.40) % injected dose per gram
Biodistribution of radioactivity, Liver ([2]; 10 min after injection): 33.78 (6.07) % injected dose per gram
Biodistribution of radioactivity, Lung ([2]; 10 min after injection): 11.97 (1.01) % injected dose per gram
Biodistribution of radioactivity, Pancreas ([2]; 10 min after injection): 2.19 (0.35) % injected dose per gram
Biodistribution of radioactivity, Spleen ([2]; 10 min after injection): 14.49 (3.50) % injected dose per gram
Biodistribution of radioactivity, Stomach ([2]; 10 min after injection): 3.77 (0.56) % injected dose per organ
Biodistribution of radioactivity, Blood ([2]; 30 min after injection): 3.72 (0.49) % injected dose per gram
Biodistribution of radioactivity, Brain ([2]; 30 min after injection): 0.10 (0.02) % injected dose per gram
Biodistribution of radioactivity, Heart ([2]; 30 min after injection): 6.67 (1.52) % injected dose per gram
Biodistribution of radioactivity, Intestine ([2]; 30 min after injection): 6.44 (1.04) % injected dose per gram
Biodistribution of radioactivity, Kidney ([2]; 30 min after injection): 3.47 (0.57) % injected dose per gram
Biodistribution of radioactivity, Liver ([2]; 30 min after injection): 31.45 (3.39) % injected dose per gram
Biodistribution of radioactivity, Lung ([2]; 30 min after injection): 5.38 (1.16) % injected dose per gram
Biodistribution of radioactivity, Pancreas ([2]; 30 min after injection): 1.14 (0.25) % injected dose per gram
Biodistribution of radioactivity, Spleen ([2]; 30 min after injection): 10.91 (1.59) % injected dose per gram
Biodistribution of radioactivity, Stomach ([2]; 30 min after injection): 6.47 (1.37) % injected dose per organ
Biodistribution of radioactivity, Blood ([2]; 60 min after injection): 1.81 (0.44) % injected dose per gram
Biodistribution of radioactivity, Brain ([2]; 60 min after injection): 0.05 (0.01) % injected dose per gram
Biodistribution of radioactivity, Heart ([2]; 60 min after injection): 7.08 (1.34) % injected dose per gram
Biodistribution of radioactivity, Intestine ([2]; 60 min after injection): 13.90 (1.52) % injected dose per gram
Biodistribution of radioactivity, Kidney ([2]; 60 min after injection): 3.13 (0.48) % injected dose per gram
Biodistribution of radioactivity, Liver ([2]; 60 min after injection): 35.76 (3.34) % injected dose per gram
Biodistribution of radioactivity, Lung ([2]; 60 min after injection): 4.50 (0.60) % injected dose per gram
Biodistribution of radioactivity, Pancreas ([2]; 60 min after injection): 1.27 (0.28) % injected dose per gram
Biodistribution of radioactivity, Spleen ([2]; 60 min after injection): 4.80 (0.63) % injected dose per gram
Biodistribution of radioactivity, Stomach ([2]; 60 min after injection): 4.20 (1.21) % injected dose per organ
